Reference: ChEMBL document CHEMBL2203037, “Synthesis and Anti-influenza A Virus Activity of 2,2-Dialkylamantadines and Related Compounds” (ACS Med Chem Lett, 2012)
Activity calls are given as the source filed them. The rule behind the calls is not given here.

Columns and labels:
Influenza A virus [1] = assay: Antiviral activity against amantadine-sensitive Influenza A virus (A/FM/1/47 (H1N1)) infected in MDCK cells assessed as virus-induced cytopathic effect measured 3 days post infection by microscopic analysis; type: functional, organism-based; conditions: A/Fort Monmouth/1/1947(H1N1), 72 h
[2] = system: Mammalian orthoreovirus 1; assay: Antiviral activity against Reovirus-1 by cell based assay; type: functional, organism-based
Vaccinia virus = assay: Antiviral activity against Vaccinia virus by cell based assay; type: functional, organism-based; conditions: Orthopoxvirus vaccinia
Coxsackievirus B4 = assay: Antiviral activity against Coxsackievirus B4 by cell based assay; type: functional, organism-based
H3N2 subtype [3] = assay: Antiviral activity against Influenza A virus (A/HK/7/87 (H3N2)) infected in MDCK cells assessed as virus-induced cytopathic effect measured 3 days post infection by microscopic analysis; type: functional, organism-based; conditions: A/Hong Kong/7/1987(H3N2), 72 h
Feline coronavirus = assay: Antiviral activity against Feline coronavirus by cell based assay; type: functional, organism-based
[4] = Cytotoxicity against dog MDCK cells assessed as cell morphology alterations; type: cell-based, Canis lupus familiaris
[5] = Cytotoxicity against dog MDCK cells assessed as cell viability after 72 hrs by MTS assay; type: cell-based, Canis lupus familiaris
Influenza A virus [6] = assay: Antiviral activity against Influenza A virus (A/Ishikawa/7/82 (H3N2)) infected in MDCK cells assessed as virus-induced cytopathic effect measured 3 days post infection by microscopic analysis; type: functional, organism-based; conditions: Influenza A virus, A/Ishikawa/7/82 (H3N2), MDCK, 72 h
Punta Toro virus = assay: Antiviral activity against Punta Toro virus by cell based assay; type: functional, organism-based
Sindbis virus = assay: Antiviral activity against Sindbis virus by cell based assay; type: functional, organism-based
H3N2 subtype [7] = assay: Antiviral activity against Influenza A virus (A/HK/7/87 (H3N2)) infected in MDCK cells assessed as virus-induced cytopathic effect by MTS assay; type: functional, organism-based, A/Hong Kong/7/1987(H3N2); conditions: mdck
Influenza A virus [8] = assay: Antiviral activity against Influenza A virus (A/X-31(H3N2)) infected in MDCK cells assessed as virus-induced cytopathic effect measured 3 days post infection by microscopic analysis; type: functional, organism-based; conditions: Influenza A virus, MDCK, 72 h
Human respirovirus 3 = assay: Antiviral activity against Parainfluenza-3 virus by cell based assay; type: functional, organism-based
Influenza A virus [9] = assay: Antiviral activity against amantadine-sensitive Influenza A virus (A/Ned/378/05 (H1N1)) infected in MDCK cells assessed as virus-induced cytopathic effect measured 3 days post infection by microscopic analysis; type: functional, organism-based; conditions: 72 h
Simplexvirus = assay: Antiviral activity against Herpes simplex virus by cell based assay; type: functional, organism-based
[10] = system: Respiratory syncytial virus; assay: Antiviral activity against Respiratory syncytial virus by cell based assay; type: functional, organism-based
[11] = system: Vesicular stomatitis virus; assay: Antiviral activity against Vesicular stomatitis virus by cell based assay; type: functional, organism-based

| SMILES | EC50 (Influenza A virus [1]) [µM] | Activity [2] | Activity (Vaccinia virus) | Activity (Coxsackievirus B4) | EC50 (H3N2 subtype [3]) [µM] | Activity (Feline coronavirus) | MCC [4] [µM] | CC50 at 72 h [5] [µM] | EC50 (Influenza A virus [6]) [µM] | Activity (Punta Toro virus) | Activity (Sindbis virus) | EC50 (H3N2 subtype [7]) [µM] | EC50 (Influenza A virus [8]) [µM] | Activity (Human respirovirus 3) | EC50 (Influenza A virus [9]) [µM] | Activity (Simplexvirus) | Activity [10] | Activity [11] |
| --- | --- | --- | --- | --- | --- | --- | --- | --- | --- | --- | --- | --- | --- | --- | --- | --- | --- | --- |
| CCC1(CC)C2CC3CC(C2)CC1(NC)C3 | 9.3 | inactive | inactive | inactive | > 100 | inactive | ≥ 100 | > 100 | > 100 | inactive | inactive | > 100 | > 100 | inactive | 8.7 | inactive | inactive | inactive |
| CCC1(CC)C2CC3CC(C2)CC1(N)C3 | 7 | inactive | inactive | inactive | > 100 | inactive | ≥ 100 | > 100 | > 100 | inactive | inactive | > 100 | > 100 | inactive | 4.7 | inactive | inactive | inactive |
